Measured values taken from patent US10316017B2, “COT modulators and methods of use thereof” (Gilead Sciences, Inc., priority 2015, dated 2019).
pEC50, pIC50: −log10 of the molar value.

Legend:
[1] = molecular target: T1, human Cot catalytic domain (30-397 amino acids) (Homo sapiens, UniProt P41279); experiment: High Throughput Cot Biochemical Assay (KinEASE TR-FRET); details: Cot biochemical HTRF (KinEASE TR-FRET) assay; read-out: IC50 HTRF
T1 construct: Purified recombinant human Cot catalytic domain (30-397 amino acids) was purchased from Cama Biosciences; purchased Cama Biosciences (so in the source)
T1 sequence (P41279 30-397): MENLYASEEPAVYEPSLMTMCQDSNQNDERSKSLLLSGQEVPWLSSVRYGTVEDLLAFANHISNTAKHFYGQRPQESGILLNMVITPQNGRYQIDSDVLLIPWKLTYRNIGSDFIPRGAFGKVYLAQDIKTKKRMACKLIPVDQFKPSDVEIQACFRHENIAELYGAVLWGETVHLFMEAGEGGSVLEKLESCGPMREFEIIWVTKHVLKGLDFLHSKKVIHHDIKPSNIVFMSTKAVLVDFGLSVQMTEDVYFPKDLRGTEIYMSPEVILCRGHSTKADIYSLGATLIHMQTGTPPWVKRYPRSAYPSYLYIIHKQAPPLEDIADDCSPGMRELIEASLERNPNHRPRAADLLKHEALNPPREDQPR
Summary of the method: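 Reaction of 5 nM recombinant human Cot catalytic domain (aa 30-397) with 1 μM STK3 peptide (XL665-labeled) and 400 μM ATP in 10 mM MOPS pH 7.0, 10 mM MgOAc, 1 mM DTT, 0.5 mg/mL BSA, 0.1% DMSO. Phosphopeptide detected by TR-FRET with europium anti-phospho antibody.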

[2] = tested on: TNFα production in LPS-stimulated human monocytes; experiment: Cot Monocyte TNFα Cell Based Assay; details: Homo sapiens, Monocyte, TNFα in LPS-stimulated human monocytes; read-out: EC50 TNF
Summary of the method: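 Cells at 5,000/well were pretreated with compound for 1 h at 37 °C (0.5% DMSO final), then stimulated with 50 pg/ml LPS for 4 h at 37 °C. Supernatant TNFα was measured by two-antibody TR-FRET after overnight room-temperature incubation; values are percent of control between unstimulated and stimulated wells.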

SMILES | pIC50 [1] | pEC50 [2]
CC(C)N1CCC(n2cc([C@@H](Nc3cc(Cl)c4ncc(C#N)c(Nc5ccc(F)c(Cl)c5)c4c3)c3ccc(F)cc3)nn2)CC1 [Example 825, (S)-8-chloro-4-((3-chloro-4-fluorophenyl)amino)-6-(((4-fluorophenyl)(1-(1-isopropylpiperidin-4-yl)-1H-1,2,3-triazol-4-yl)methyl)amino)quinoline-3-carbonitrile] | 8.40 | 6.82
N#Cc1cnc2c(Cl)cc(N[C@@H](c3ccc(F)cc3)c3cn(C4CCN(CC(F)(F)F)CC4)nn3)cc2c1Nc1ccc(F)c(Cl)c1 [Example 828, (S)-8-chloro-4-((3-chloro-4-fluorophenyl)amino)-6-(((4-fluorophenyl)(1-(1-(2,2,2-trifluoroethyl)piperidin-4-yl)-1H-1,2,3-triazol-4-yl)methyl)amino)quinoline-3-carbonitrile] | 6.53 | 5.94
CC(C)(C)N1CCC(n2cc([C@@H](Nc3cc(Cl)c4ncc(C#N)c(Nc5ccc(F)c(Cl)c5)c4c3)c3ccccc3)nn2)CC1 [Example 831, (S)-6-(((1-(1-(tert-butyl)piperidin-4-yl)-1H-1,2,3-triazol-4-yl)(phenyl)methyl)amino)-8-chloro-4-((3-chloro-4-fluorophenyl)amino)quinoline-3-carbonitrile] | 8.00 | 6.42
Cn1ccnc1C(Nc1cc(Cl)c2ncc(C#N)c(Nc3ccc(F)c(Cl)c3)c2c1)c1ccc(F)cc1 (stereo not shown) [Example 847, 8-chloro-4-((3-chloro-4-fluorophenyl)amino)-6-(((4-fluorophenyl)(1-methyl-1H-imidazol-2-yl)methyl)amino)quinoline-3-carbonitrile] | 6.44 | 5.10
CCN1CCC(n2cc([C@H](Nc3cc(Cl)c4ncc(C#N)c(Nc5ccc(F)c(Cl)c5)c4c3)c3ccc(F)cc3)nn2)CC1 [Example 849, (R)-8-chloro-4-((3-chloro-4-fluorophenyl)amino)-6-(((1-(1-ethylpiperidin-4-yl)-1H-1,2,3-triazol-4-yl)(4-fluorophenyl)methyl)amino) quinoline-3-carbonitrile] | 6.16 | 5.20
Cn1cnnc1C(Nc1cc(Cl)c2ncc(C#N)c(Nc3ccc(F)c(Cl)c3)c2c1)c1ccc(F)cc1 (stereo not shown) [Example 854, 8-chloro-4-((3-chloro-4-fluorophenyl)amino)-6-(((4-fluorophenyl)(4-methyl-4H-1,2,4-triazol-3-yl)methyl)amino)quinoline-3-carbonitrile] | 6.33 | < 5.00
N#Cc1cnc2c(Cl)cc(NC(c3ccc(Cl)cc3)c3cn(C4CNC4)nn3)cc2c1Nc1ccc(F)c(Cl)c1 (stereo not shown) [Example 872, 6-(((1-(azetidin-3-yl)-1H-1,2,3-triazol-4-yl)(4-chlorophenyl)methyl)amino)-8-chloro-4-((3-chloro-4-fluorophenyl)amino)quinoline-3-carbonitrile] | 7.39 | 5.88
Cn1cc(C(Nc2cc(Cl)c3ncc(C#N)c(Nc4ccc(F)c(Cl)c4)c3c2)c2ccc(F)cc2)nn1 (stereo not shown) [Example 882, 8-chloro-4-((3-chloro-4-fluorophenyl)amino)-6-(((4-fluorophenyl)(1-methyl-1H-1,2,3-triazol-4-yl)methyl)amino)quinoline-3-carbonitrile] | 7.70 | 6.49
Cn1cnc(C(Nc2cc(Cl)c3ncc(C#N)c(Nc4ccc(F)c(Cl)c4)c3c2)c2ccc(F)cc2)c1 (stereo not shown) [Example 887, 8-chloro-4-((3-chloro-4-fluorophenyl)amino)-6-(((4-fluorophenyl)(1-methyl-1H-imidazol-4-yl)methyl)amino)quinoline-3-carbonitrile] | 7.15 | 5.72
Cn1cnc(C(Nc2cc(Cl)c3ncc(C#N)c(Nc4ccc(F)c(Cl)c4)c3c2)c2ccccc2)c1 (stereo not shown) [Example 895, 8-chloro-4-((3-chloro-4-fluorophenyl)amino)-6-(((1-methyl-1H-imidazol-4-yl)(phenyl)methyl)amino) quinoline-3-carbonitrile] | 7.25 | 6.00
CCN1CCC(n2cc(C(Nc3cc(Cl)c4ncc(C#N)c(Nc5ccc(F)c(Cl)c5)c4c3)c3cccc(F)c3)nn2)CC1 (stereo not shown) [Example 907, 8-chloro-4-((3-chloro-4-fluorophenyl)amino)-6-(((1-(1-ethylpiperidin-4-yl)-1H-1,2,3-triazol-4-yl)(3-fluorophenyl)methyl)amino) quinoline-3-carbonitrile] | 8.30 | 6.89

Continued by rising pIC50 [1], values first:

pIC50 [1] | pEC50 [2] | SMILES
5.20 | < 6.00 | Cn1cc(C(Nc2cc(Cl)c3ncc(C#N)c(Nc4ccc(F)c(Cl)c4)c3c2)c2ccc(F)cc2)cn1 (stereo not shown) [Example 853, 8-chloro-4-((3-chloro-4-fluorophenyl)amino)-6-(((4-fluorophenyl)(1-methyl-1H-pyrazol-4-yl)methyl)amino)quinoline-3-carbonitrile]
6.00 | 4.66 | Cn1cc([C@H](Nc2cc(Cl)c3ncc(C#N)c(Nc4ccc(F)c(Cl)c4)c3c2)c2cccc(CN3CCCC3)c2)nn1 [Example 842, (R)-8-chloro-4-((3-chloro-4-fluorophenyl)amino)-6-(((1-methyl-1H-1,2,3-triazol-4-yl)(3-(pyrrolidin-1-ylmethyl)phenyl)methyl)amino) quinoline-3-carbonitrile]
6.77 | 5.76 | Cn1cnc(C(Nc2cc(Cl)c3ncc(C#N)c(Nc4ccc(F)c(Cl)c4)c3c2)c2ccc(Cl)cc2)c1 (stereo not shown) [Example 894, 8-chloro-4-((3-chloro-4-fluorophenyl)amino)-6-(((4-chlorophenyl)(1-methyl-1H-imidazol-4-yl)methyl)amino)quinoline-3-carbonitrile]
6.90 | 5.56 | Cn1cnc(C(Nc2cc(Cl)c3ncc(C#N)c(Nc4ccc(F)c(Cl)c4)c3c2)c2ccc(F)c(F)c2)c1 (stereo not shown) [Example 869, 8-chloro-4-((3-chloro-4-fluorophenyl)amino)-6-(((3,4-difluorophenyl)(1-methyl-1H-imidazol-4-yl)methyl)amino)quinoline-3-carbonitrile]
7.41 | 6.17 | Cn1cc(C(Nc2cc(Cl)c3ncc(C#N)c(Nc4ccc(F)c(Cl)c4)c3c2)c2ccc(Cl)cc2)nn1 (stereo not shown) [Example 881, 8-chloro-4-((3-chloro-4-fluorophenyl)amino)-6-(((4-chlorophenyl)(1-methyl-1H-1,2,3-triazol-4-yl)methyl)amino)quinoline-3-carbonitrile]
7.49 | 6.44 | CCN1CCC(n2cc(C(Nc3cc(Cl)c4ncc(C#N)c(Nc5ccc(F)c(Cl)c5)c4c3)c3cc(F)c(F)c(F)c3)nn2)CC1 (stereo not shown) [Example 889, 8-chloro-4-((3-chloro-4-fluorophenyl)amino)-6-(((1-(1-ethylpiperidin-4-yl)-1H-1,2,3-triazol-4-yl)(3,4,5-trifluorophenyl)methyl)amino) quinoline-3-carbonitrile]
7.92 | 6.27 | N#Cc1cnc2c(Cl)cc(N[C@@H](c3ccc(Cl)cc3)c3cn(C4CCNCC4)nn3)cc2c1Nc1ccc(F)c(Cl)c1 [Example 859, (S)-8-chloro-4-((3-chloro-4-fluorophenyl)amino)-6-(((4-chlorophenyl)(1-(piperidin-4-yl)-1H-1,2,3-triazol-4-yl)methyl)amino)quinoline-3-carbonitrile]
7.96 | 6.33 | Cc1cc(F)ccc1C(Nc1cc(Cl)c2ncc(C#N)c(Nc3ccc(F)c(Cl)c3)c2c1)c1cn(C2CCNCC2)nn1 (stereo not shown) [Example 884, 8-chloro-4-((3-chloro-4-fluorophenyl)amino)-6-(((4-fluoro-2-methylphenyl) (1-(piperidin-4-yl)-1H-1,2,3-triazol-4-yl)methyl)amino)quinoline-3-carbonitrile]
8.05 | 6.54 | CCN1CCC(n2cc(C(Nc3cc(Cl)c4ncc(C#N)c(Nc5ccc(F)c(Cl)c5)c4c3)c3ccc(F)cc3C)nn2)CC1 (stereo not shown) [Example 885, 8-chloro-4-((3-chloro-4-fluorophenyl)amino)-6-(((1-(1-ethylpiperidin-4-yl)-1H-1,2,3-triazol-4-yl)(4-fluoro-2-methylphenyl)methyl)amino) quinoline-3-carbonitrile]
8.10 | 6.62 | CC(C)(C)N1CCC(n2cc([C@@H](Nc3cc(Cl)c4ncc(C#N)c(Nc5ccc(F)c(Cl)c5)c4c3)c3ccc(F)cc3)nn2)CC1 [Example 836, (S)-6-(((1-(1-(tert-butyl)piperidin-4-yl)-1H-1,2,3-triazol-4-yl)(4-fluorophenyl)methyl)amino)-8-chloro-4-((3-chloro-4-fluorophenyl)amino)quinoline-3-carbonitrile]
8.10 | 6.85 | Cn1cc([C@@H](Nc2cc(Cl)c3ncc(C#N)c(Nc4ccc(F)c(Cl)c4)c3c2)c2cccc(CN3CCCC3)c2)nn1 [Example 841, (S)-8-chloro-4-((3-chloro-4-fluorophenyl)amino)-6-(((1-methyl-1H-1,2,3-triazol-4-yl)(3-(pyrrolidin-1-ylmethyl)phenyl)methyl)amino) quinoline-3-carbonitrile]
8.10 | 7.00 | CCN1CCC(n2cc([C@@H](Nc3cc(Cl)c4ncc(C#N)c(Nc5ccc(F)c(Cl)c5)c4c3)c3ccc(Cl)cc3)nn2)CC1 [Example 858, (S)-8-chloro-4-((3-chloro-4-fluorophenyl)amino)-6-(((4-chlorophenyl)(1-(1-ethylpiperidin-4-yl)-1H-1,2,3-triazol-4-yl)methyl)amino)quinoline-3-carbonitrile]
